Test results taken from patent US5610159A, “N-oxides of morpholine derivatives and their use as therapeutic agents” (Merck Sharp & Dohme Limited, priority 1995, dated 1997).

Assay: stability of crystals on storage
Type: physicochemical
Experimental: Dimethylamine (approximately 10 ml) was condensed at -80° C. in a pressure tube and to this was added a solution of N-(4-azidobut-2-ynyl)-2-(R)-(1-(R)-(3,5-bis(trifluoromethyl)phenyl)ethoxy)-3-(S)-(4-fluorophenyl)morpholine (3.2 g) in dioxan (15 ml). The tube was sealed and the solution was heated at 90° C. for 16 h. The solution was evaporated to dryness and the residue chromatographed on silica gel (eluting with 5% methanol in dichloromethane containing 0.25% ammonia (SG. 0.88)) and the fractions containing the desired product were evaporated in vacuo to give the title compound. To a solution of this residue in diethyl ether was added 1M-HCl in methanol. The solution was evaporated to dryness and redissolved in diethyl ether to give crystals of the title compound hydrochloride salt m.p. 194°-198° C., [α]^22D+65.0° (c=0.5, H2 O).

Measured: stability of crystals

C[C@@H](O[C@H]1OCCN(Cc2nn[nH]c2CN(C)C)[C@H]1c1ccc(F)cc1)c1cc(C(F)(F)F)cc(C(F)(F)F)c1 [Description 9]
stable for at least five days: at 40° C. | at 40° C./75% relative humidity | at 80° C. | at 2000LUX
